Measured values from patent publication US20100190849A1, “Novel Clerodanes and Methods for Repelling Arthropods” (priority 2006, published 2010).
Marks after values point to notes of the source that are not given here.

Assays:
Aedes aegypti [1] = assay: K & D module mosquito anti-biting (repellent) bioassay; type: in vivo
Experimental: Insects: Ae. aegypti(L.) (red eye Liverpool strain) and An. stephensi Liston used in the study were from colonies maintained at the Walter Reed Army Institute of Research, Silver Spring, Md. […] Adults were maintained in a photoperiod of 12:12 (L:D) h at 27° C. and 80% RH with cotton pads moistened with 10% aqueous sucrose solution. Mated females were 5-15 d old when they were used in bioassays. Ae. aegypti females had access only to water 24 h and neither food nor water for another 24 h before testing. An. stephensi females were provided with water alone 24 h before testing.
Routinely, a six-celled K & D module containing five mosquitoes/cell was positioned over cloth treatments covering the six blood-membrane wells, and trap doors of the K&D modules were opened to expose the treatments to the sets of mosquitoes. After a 3 minute exposure, the number of mosquitoes biting through cloth treatments in each cell was recorded and mosquitoes were prodded back into the cells. […] Experiments were replicated 12, 18, 32, or 56 times. Thus, 60, 90, 160. or 280 mosquitoes were tested against each treatment depending on the experiment, and the proportion of mosquitoes not biting for each treatment was calculated. For each experiment, conducted in different time periods, logistic regression was used to make two sets of one degree-of-freedom contrasts (t-tests): treatments vs. control and treatments vs. SS220 for anti-biting activity within each experiment. The level of significance was set at P=0.05. In all, we conducted 8 biological experiments, and all experiments used Ae. aegypti as the test mosquito with exception of Experiment 7 which used An. stephensi.
Each experiment was replicated 18 times.
Experiments 3, 4, and 5: In each of these experiments, chromatographic fractions of essential oil at their respective percentage compositions of 100 μg essential oil/cm^2 cloth, 100 μg unfractionated essential oil/cm^2 cloth, 25 nmol SS-220/cm^2 cloth and control were compared for mosquito anti-biting activity. Each experiment was replicated 18 times.
Experiments 6 and 7: These experiments compared the anti-biting activities of SS-220, and plant-isolated callicarpenal, humulene epoxide II, intermedeol and spathulenol at 25 nmol compound/cm^2 cloth versus control against Ae. aegypti and An. stephensi, respectively. Experiment 6 was replicated 32 times and 7 had 56 replicates
The percentage composition of the mixture was a normalized percentage of active components in C. japonica essential oil based upon GC-MS analysis total ion Area % analysis based on largest peaks. Other treatments in the experiment were SS220, callicarpenal, intermedeol, and spathulenol each at 25 nmol/cm^2 cloth versus control.

[2] = tested on: hybrid (S. invicta×S. richteri); assay: Two-choice digging bioassay, head-to-head against octanoic acid; type: in vivo; settings: 25.00 ppm
Experimental: (§1) The repellency of the two terpenoids, callicarpenal and intermedeol, against workers of red imported fire ants, Solenopsis invicta Buren, black imported fire ants, Solenopsis rickeri Forel, and a hybrid of these two species was evaluated using multiple-choice digging bioassays (Tables 9 & 10). […] Callicarpenal and intermedeol were compared with octanoic acid, a known fire ant repellant, at the 25.00 ppm level using two-choice digging bioassays (FIGS. 3 and 4).
(§2) Head-to-head comparison on repellency of callicarpenal and intermedeol against octanoic acid: The bioassay apparatus was similar as described above, except a smaller Petri dish (8.7×2.3 cm) was used and only two choices were presented: one was sand treated with callicarpenal or intermedeol and the other with octanoic acid. Two choices were opposite each other across the center of the Petri dish and each was 3.0 cm away from the center. All compounds were tested at a 25.00 ppm level. Sand preparation was similar as described above. Ants from the same colonies as above were used in this experiment. There were five replications for each pair of comparisons. A paired t-test (critical P-value=0.05) was used to compare the mean amount of sand removed between two tubes.

S. richteri = assay: as above; type: in vivo, Solenopsis richteri; settings: 25.00 ppm; both S. richteri colonies; FIGS. 3 and 4
Experimental: as §1, §2

Aedes aegypti [3] = assay: Total mosquito toxic knockdown after K & D module exposure (Experiment 8); type: in vivo; settings: Exp. 8, 25 nmol/cm^2 cloth; for Total Knock down 6 min: dead mosquitoes 6 min post-treatment exposure; for Total knock down 1 hr: dead mosquitoes 1 hr post-treatment exposure; for Total knock down 24 hr: dead mosquitoes 24 hr post-treatment exposure
Description: Plant extracts, fractions, or isolated pure plant derived compounds in 95% ethanol solution were each randomly applied to six-4×5 cm areas of organdy cloth and positioned over the membrane-covered blood. A replicate consisted of six treatments: four test chemicals or extract fractions, 95% ethanol treated cloth as control and unfractionated plant extract or a standard repellent compound, (1S, 2′S)-2-methylpiperidinyl-3-cyclohexen-1-carboxamide (SS220) at 25 nmol/cm^2 cloth. The 25 nmol SS220/cm^2 cloth dose was used as a standard, because it was known from human volunteer and in vitro assays to consistently suppress mosquito biting by 80% or more compared to controls in replicated assays (Klun, J. A., et al., Journal of the American Mosquito Control Association, 21: 64-70 (2005)). […] Routinely, a six-celled K & D module containing five mosquitoes/cell was positioned over cloth treatments covering the six blood-membrane wells, and trap doors of the K&D modules were opened to expose the treatments to the sets of mosquitoes. After a 3 minute exposure, the number of mosquitoes biting through cloth treatments in each cell was recorded and mosquitoes were prodded back into the cells. In Experiment 8, we retained all mosquitoes in their respective K&D module cells, each fitted with a water-moist piece of cotton, and observed the mosquitoes for total mosquito toxic knockdown at 6 min, 1 hr, and 24 hr post-treatment exposure. Experiments were replicated 12, 18, 32, or 56 times. Thus, 60, 90, 160. or 280 mosquitoes were tested against each treatment depending on the experiment, and the proportion of mosquitoes not biting for each treatment was calculated. For each experiment, conducted in different time periods, logistic regression was used to make two sets of one degree-of-freedom contrasts (t-tests): treatments vs. control and treatments vs. SS220 for anti-biting activity within each experiment. The level of significance was set at P=0.05. In all, we conducted 8 biological experiments, and all experiments used Ae. aegypti as the test mosquito with exception of Experiment 7 which used An. stephensi.
Experiment 8: This experiment (12 replicates) compared the antibiting activities of a mixture (25 nmol/cm^2 cloth) of 11.5% callicarpenal, 47.1% intermedeol, and 41.4% spathulenol. The percentage composition of the mixture was a normalized percentage of active components in C. japonica essential oil based upon GC-MS analysis total ion Area % analysis based on largest peaks. Other treatments in the experiment were SS220, callicarpenal, intermedeol, and spathulenol each at 25 nmol/cm^2 cloth versus control. In addition to measurement of anti-biting activity, the number of dead mosquitoes observed at three time intervals were recorded for the six treatments.

[4] = Exp. 6, 25 nmol compound/cm^2 cloth, 32 replicates
[5] = Exp. 8, 25 nmol/cm^2 cloth, 12 replicates
[6] = Experiment 6, 25 nmol compound/cm^2 cloth
[7] = Experiment 8, 25 nmol/cm^2 cloth

`CC1=CCC[C@@H]2[C@@](C)(CC=O)[C@H](C)CC[C@@]12C` [callicarpenal, 13,14,15,16-tetranorclerod-3-en-12-al] was tested, and the “Proportion Not Biting” value (Aedes aegypti [1]; [4]) was 0.70^b, the “Proportion Not Biting” value (Aedes aegypti [1]; [5]) was 0.73^a and the “repellent activity (in words)” value (Aedes aegypti [1]; [6]) was “significant activity”. For the same molecule, the “repellent activity (in words)” value (Aedes aegypti [1]; [7]) was “high repellent activity that was comparable to SS220”, the “Proportion Not Biting” value (Aedes aegypti [1]; Table 7, Example 2, synthetic compounds, dose not given) was 0.70^b and the “Proportion Not Biting” value (Aedes aegypti [1]; Table 8, Example 3, synthetic compounds, dose not given) was 0.73^b. For the same molecule, the “repellency compared with octanoic acid (in words)” value ([2]; one hybrid colony, FIG. 3) was “significantly greater repellency than octanoic acid”, the “repellency compared with octanoic acid (in words)” value ([2]; the other hybrid colony, FIG. 3) was “no significant difference” and the “repellency compared with octanoic acid (in words)” value (S. richteri) was “significantly greater repellency than octanoic acid”. For the same molecule, the “Total Knock down 6 min” value (Aedes aegypti [3]) was 0, the “Total knock down 1 hr” value (Aedes aegypti [3]) was 1 and the “Total knock down 24 hr” value (Aedes aegypti [3]) was 5.
For `C=C(C)C1CCC2(C)CCCC(C)(O)C2C1` [intermedeol, (4S,5S,7R,10S)-eudesm-11-en-4-ol], the “Proportion Not Biting” value (Aedes aegypti [1]; [4]) was 0.70^b, the “Proportion Not Biting” value (Aedes aegypti [1]; [5]) was 0.62^c and the “repellent activity (in words)” value (Aedes aegypti [1]; [6]) was “significant activity”. The “repellent activity (in words)” value (Aedes aegypti [1]; [7]) was “high repellent activity that was comparable to SS220”, the “repellency compared with octanoic acid (in words)” value ([2]; all hybrid colonies, FIG. 4) was “significantly greater repellency than octanoic acid” and the “repellency compared with octanoic acid (in words)” value (S. richteri) was “significantly greater repellency than octanoic acid”. The “Total Knock down 6 min” value (Aedes aegypti [3]) was 1, the “Total knock down 1 hr” value (Aedes aegypti [3]) was 1 and the “Total knock down 24 hr” value (Aedes aegypti [3]) was 2.
